From patent US20100311714A1, “1H-IMIDAZO[4,5-c]QUINOLINONE COMPOUNDS” (priority 2009, published 2010) come the findings set out here.

Each structure is given as a SMILES string. In brackets after ≈: the same amount, converted by molar mass.

For one data set, the target named is T1, PI3K beta (Homo sapiens, UniProt P42338).
T1 construct: for the full-length p110-b subunit are generated and fused by overlapping PCR; His tag (C); made in house; host or cells: baculovirus BV949; Tn5 (Trichoplusia ni) or TiniPro insect cells
Description: PI3K beta kinase assay (Kinase-Glo luminescence). Format: biochemical. To be noted: read-out: EPK_PI3Kbeta/IC50. An outline of the steps: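 Kinase-Glo luminescence read out ATP left after a 60-min room-temperature reaction, started with ATP (1 μM final) on 25 nM His-tagged p85 iSH2–p110β (BV949) plus 10 μg/mL PI substrate in pH 7.5 Tris buffer. Percent inhibition at eight concentrations was fitted to a four-parameter logistic model for IC50.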
(Kinase-Glo measures the ATP left after a reaction by luminescence.)

A short description of data set [1]: High-throughput equilibrium solubility at pH 6.8. It counts as physicochemical. The note with it: pH 6.8, aqueous buffer, thermodynamic from solid; read-out: HT-Eq Sol/pH 6.8. The procedure, abridged: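 Following the procedure of Zhou et al. (2007), compound solubility was determined at pH 6.8.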

T1 sequence (P42338 with tags, fused parts or gaps limits assumed): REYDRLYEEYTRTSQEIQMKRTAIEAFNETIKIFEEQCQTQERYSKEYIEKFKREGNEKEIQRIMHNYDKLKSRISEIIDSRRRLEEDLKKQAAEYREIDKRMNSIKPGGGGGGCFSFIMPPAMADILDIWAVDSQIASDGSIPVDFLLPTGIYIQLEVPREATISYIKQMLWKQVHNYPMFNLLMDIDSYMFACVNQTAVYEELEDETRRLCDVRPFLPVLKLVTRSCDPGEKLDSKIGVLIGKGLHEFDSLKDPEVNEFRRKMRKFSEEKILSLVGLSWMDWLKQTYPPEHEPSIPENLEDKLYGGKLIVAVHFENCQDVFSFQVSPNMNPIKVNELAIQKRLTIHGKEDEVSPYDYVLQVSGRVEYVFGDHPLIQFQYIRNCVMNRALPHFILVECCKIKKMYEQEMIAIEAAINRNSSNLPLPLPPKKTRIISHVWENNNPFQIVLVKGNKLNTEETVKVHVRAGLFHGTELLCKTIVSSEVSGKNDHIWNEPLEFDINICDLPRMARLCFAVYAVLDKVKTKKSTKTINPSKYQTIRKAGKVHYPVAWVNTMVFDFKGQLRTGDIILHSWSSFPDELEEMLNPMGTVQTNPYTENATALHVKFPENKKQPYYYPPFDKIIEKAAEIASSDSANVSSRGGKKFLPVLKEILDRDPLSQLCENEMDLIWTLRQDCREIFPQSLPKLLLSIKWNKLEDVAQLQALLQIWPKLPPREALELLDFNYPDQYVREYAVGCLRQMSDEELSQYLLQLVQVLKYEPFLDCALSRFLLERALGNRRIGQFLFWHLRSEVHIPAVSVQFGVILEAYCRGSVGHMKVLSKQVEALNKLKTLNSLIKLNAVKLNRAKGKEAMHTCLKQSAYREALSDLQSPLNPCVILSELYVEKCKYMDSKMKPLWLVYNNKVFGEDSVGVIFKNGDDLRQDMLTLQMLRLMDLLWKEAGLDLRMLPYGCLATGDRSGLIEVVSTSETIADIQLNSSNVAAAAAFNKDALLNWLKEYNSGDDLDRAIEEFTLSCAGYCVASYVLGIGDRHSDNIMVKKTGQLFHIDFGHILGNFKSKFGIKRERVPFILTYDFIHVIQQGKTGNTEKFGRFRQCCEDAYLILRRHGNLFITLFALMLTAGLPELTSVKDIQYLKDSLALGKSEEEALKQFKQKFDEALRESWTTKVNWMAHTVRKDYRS

`Cc1nc(N2CCC2)ccc1-n1c(=O)n(C)c2cnc3ccc(-c4cncc(N5CCC5)c4)cc3c21` [Example 23.1, 1-(6-Azetidin-1-yl-2-methyl-pyridin-3-yl)-8-(5-azetidin-1-yl-pyridin-3-yl)-3-methyl-1,3-dihydro-imidazo[4,5-c]quinolin-2-one]: on PI3K beta, the IC50 worked out at 1160 nM. For the same compound, the solubility thermodynamic in data set [1] is 22 µg/mL (≈ 46.1 µM).
The matching figures for `COCc1ncc(-c2ccc3ncc4c(c3c2)n(-c2ccc(N3CCC3)nc2C)c(=O)n4C)cc1OC(C)C` [Example 23.2, 1-(6-Azetidin-1-yl-2-methyl-pyridin-3-yl)-8-(5-isopropoxy-6-methoxymethyl-pyridin-3-yl)-3-methyl-1,3-dihydro-imidazo[4,5-c]quinolin-2-one]: 193 nM and 264 µg/mL (≈ 503 µM).
The matching figures for `Cc1nc(N2CCC2)ccc1-n1c(=O)n(C)c2cnc3ccc(-c4cncc(C(C)(C)O)c4)cc3c21` [Example 23.3, 1-(6-Azetidin-1-yl-2-methyl-pyridin-3-yl)-8-[5-(1-hydroxy-1-methyl-ethyl)-pyridin-3-yl]-3-methyl-1,3-dihydro-imidazo[4,5-c]quinolin-2-one]: 19 nM and 204 µg/mL (≈ 424 µM).
For `CNc1ccc(-c2ccc3ncc4c(c3c2)n(-c2ccc(N3CCC3)nc2C)c(=O)n4C)cn1` [Example 23.4, 1-(6-Azetidin-1-yl-2-methyl-pyridin-3-yl)-3-methyl-8-(6-methylamino-pyridin-3-yl)-1,3-dihydro-imidazo[4,5-c]quinolin-2-one], on PI3K beta, the IC50 stood at 441 nM. Moreover, the solubility thermodynamic in data set [1] was found to be 9 µg/mL (≈ 19.9 µM).
The matching figures for `CCOc1cc(-c2ccc3ncc4c(c3c2)n(-c2ccc(N3CCC3)nc2C)c(=O)n4C)cnc1COC` [Example 23.5, 1-(6-Azetidin-1-yl-2-methyl-pyridin-3-yl)-8-(5-ethoxy-6-methoxymethyl-pyridin-3-yl)-3-methyl-1,3-dihydro-imidazo[4,5-c]quinolin-2-one]: 208 nM and 69 µg/mL (≈ 135 µM).
The matching figures for `COCc1ncc(-c2ccc3ncc4c(c3c2)n(-c2ccc(N3CCC3)nc2C)c(=O)n4C)cc1OC` [Example 23.6, 1-(6-Azetidin-1-yl-2-methyl-pyridin-3-yl)-8-(5-methoxy-6-methoxymethyl-pyridin-3-yl)-3-methyl-1,3-dihydro-imidazo[4,5-c]quinolin-2-one]: 353 nM and 21 µg/mL (≈ 42.3 µM).
On to `CCNc1cc(-c2ccc3ncc4c(c3c2)n(-c2ccc(N3CCC3)nc2C)c(=O)n4C)cnc1CO` [Example 23.8, 1-(6-Azetidin-1-yl-2-methyl-pyridin-3-yl)-8-(5-ethylamino-6-hydroxymethyl-pyridin-3-yl)-3-methyl-1,3-dihydro-imidazo[4,5-c]quinolin-2-one], for which the IC50 on PI3K beta is 36 nM. In data set [1], the solubility thermodynamic is 57 µg/mL (≈ 115 µM).
The matching figures for `Cc1nc(N2CCC2)ccc1-n1c(=O)n(C)c2cnc3ccc(-c4cncc(OC(C)C)c4)cc3c21` [Example 23.9, 1-(6-Azetidin-1-yl-2-methyl-pyridin-3-yl)-8-(5-isopropoxy-pyridin-3-yl)-3-methyl-1,3-dihydro-imidazo[4,5-c]quinolin-2-one]: 171 nM and 35 µg/mL (≈ 72.8 µM).
In the case of `CNc1ncc(-c2ccc3ncc4c(c3c2)n(-c2ccc(N3CC(F)(F)C3)nc2C)c(=O)n4C)cn1` [Example 24.1, 1-[6-(3,3-Difluoro-azetidin-1-yl)-2-methyl-pyridin-3-yl]-3-methyl-8-(2-methylamino-pyrimidin-5-yl)-1,3-dihydro-imidazo[4,5-c]quinolin-2-one], the IC50 at PI3K beta worked out at 1010 nM. Further, the solubility thermodynamic in data set [1] came to 59 µg/mL (≈ 121 µM).
The matching figures for `CCOc1cc(-c2ccc3ncc4c(c3c2)n(-c2ccc(N3CCCC3)nc2C)c(=O)n4C)cnc1COC` [Example 25.2, 8-(5-Ethoxy-6-methoxymethyl-pyridin-3-yl)-3-methyl-1-(2-methyl-6-pyrrolidin-1-yl-pyridin-3-yl)-1,3-dihydro-imidazo[4,5-c]quinolin-2-one]: 291 nM and 187 µg/mL (≈ 356 µM).
The matching figures for `Cc1nc(N2CCCC2)ccc1-n1c(=O)n(C)c2cnc3ccc(-c4cncc(C(C)(C)O)c4)cc3c21` [Example 25.3, 8-[5-(1-Hydroxy-1-methyl-ethyl)-pyridin-3-yl]-3-methyl-1-(2-methyl-6-pyrrolidin-1-yl-pyridin-3-yl)-1,3-dihydro-imidazo[4,5-c]quinolin-2-one]: less than 3 nM and 99 µg/mL (≈ 200 µM).
Consider `Cc1nc(N(C)CCO)ccc1-n1c(=O)n(C)c2cnc3ccc(-c4cnc(N)c(C(F)(F)F)c4)cc3c21` [Example 26.1, 8-(6-Amino-5-trifluoromethyl-pyridin-3-yl)-1-{6-[(2-hydroxy-ethyl)-methyl-amino]-2-methyl-pyridin-3-yl}-3-methyl-1,3-dihydro-imidazo[4,5-c]quinolin-2-one], for which the IC50 on PI3K beta was less than 3 nM. Further, the solubility thermodynamic in data set [1] was determined as 4 µg/mL (≈ 7.64 µM).
The matching figures for `CNc1ncc(-c2ccc3ncc4c(c3c2)n(-c2ccc(N(C)CCO)nc2C)c(=O)n4C)cn1` [Example 26.2, 1-{6-[(2-Hydroxy-ethyl)-methyl-amino]-2-methyl-pyridin-3-yl}-3-methyl-8-(2-methylamino-pyrimidin-5-yl)-1,3-dihydro-imidazo[4,5-c]quinolin-2-one]: 99 nM and 23 µg/mL (≈ 48.9 µM).
The matching figures for `CNc1ncc(-c2ccc3ncc4c(c3c2)n(-c2ccc(N3CCC(O)C3)nc2C)c(=O)n4C)cn1` (stereo not shown) [Example 27.2, 1-[6-(3-Hydroxy-pyrrolidin-1-yl)-2-methyl-pyridin-3-yl]-3-methyl-8-(2-methylamino-pyrimidin-5-yl)-1,3-dihydro-imidazo[4,5-c]quinolin-2-one]: 124 nM and 67 µg/mL (≈ 139 µM).
`COC1CCN(c2ccc(-n3c(=O)n(C)c4cnc5ccc(-c6cncc(C(C)(C)O)c6)cc5c43)c(C)n2)C1` (stereo not shown) [Example 28.1, 8-[5-(1-Hydroxy-1-methyl-ethyl)-pyridin-3-yl]-1-[6-(3-methoxy-pyrrolidin-1-yl)-2-methyl-pyridin-3-yl]-3-methyl-1,3-dihydro-imidazo[4,5-c]quinolin-2-one]: the IC50 at PI3K beta amounted to 48 nM. In data set [1], the solubility thermodynamic was found to be 427 µg/mL (≈ 814 µM).
On to `CCNc1cc(-c2ccc3ncc4c(c3c2)n(-c2ccc(N3CC(O)C3)nc2C)c(=O)n4C)cnc1CO` [Example 29.2, 8-(5-Ethylamino-6-hydroxymethyl-pyridin-3-yl)-1-[6-(3-hydroxy-azetidin-1-yl)-2-methyl-pyridin-3-yl]-3-methyl-1,3-dihydro-imidazo[4,5-c]quinolin-2-one], for which, on PI3K beta, the IC50 was determined as 677 nM. Further, the solubility thermodynamic in data set [1] was 57 µg/mL (≈ 111 µM).
For `CNc1ncc(-c2ccc3ncc4c(c3c2)n(-c2ccc(N3CC(O)C3)nc2C)c(=O)n4C)cc1F` [Example 29.3, 8-(5-Fluoro-6-methylamino-pyridin-3-yl)-1-[6-(3-hydroxy-azetidin-1-yl)-2-methyl-pyridin-3-yl]-3-methyl-1,3-dihydro-imidazo[4,5-c]quinolin-2-one], on PI3K beta, the IC50 was found to be 301 nM. The solubility thermodynamic in data set [1] stood at 56 µg/mL (≈ 115 µM).
